Tested on: caspase-3
Test: Caspase-3 biosensor apoptosis assay, MCF-7 cells
Format: cell-based
Settings: MCF-7 cells transfected with the caspase 3 biosensor
Description: For DNA transfection, BHK cells and MCF-7 cells were cultured to 50-70% confluence in 6 well plates containing 3 ml of minimal Eagle's medium (MEM) with 10% fetal calf serum, 1 mM L-glutamine, 50 μg/ml streptomycin, 50 μg/ml penicillin, 0.1 mM non-essential amino acids, 1 mM sodium pyruvate and 10 μg/ml of bovine insulin (for MCF-7 cell only) at 37° C. in a 5% CO2 incubator for about 36 hours. The cells were washed with serum free MEM media and incubated for 5 hours with 1 ml of transfection mixture containing 1 μg of the appropriate plasmid and 4 μg of lipofectimine (BRL) in the serum free MEM media. Subsequently, the transfection medium was removed and replaced with 3 ml of normal culture media. The transfected cells were maintained in growth medium for at least 16 hours before performing selection of the stable cells based on standard molecular biology methods (Ausubel. et al 1995).
For apoptosis assays, the cells (BHK, MCF-7) stably transfected with the appropriate protease biosensor expression vector were plated on tissue culture treated 96-well plates at 50-60% confluence and cultured overnight at 37° C., 5% CO2. Varying concentrations of cis-platin, staurosporine, or paclitaxel in normal culture media were freshly prepared from stock and added to cell culture dishes to replace the old culture media. The cells were then observed with the cell screening system of the present invention at the indicated time points either as live cell experiments or as fixed end-point experiments.
This biosensor is restricted to the cytoplasm by the reactant target sequence. The reactant target sequence is the annexin II cytoskeletal binding domain ([…]) (SEQ ID NO:124) (FIG. 29C) (Eberhard et al. 1997. Mol. Biol. Cell 8:293a). The enzyme recognition site corresponds to two copies of the amino acid sequence DEVD (SEQ ID NO:60) (FIG. 29B), which serves as the recognition site of caspase-3. […]
The biosensor response is measured by quantitating the effective cytoplasm-to-nuclear translocation of the signal (see above). […]

Q: `CC(=O)O[C@H]1C(=O)[C@@]2(C)[C@H]([C@H](OC(=O)c3ccccc3)[C@]3(O)C[C@H](OC(=O)[C@H](O)[C@@H](NC(=O)c4ccccc4)c4ccccc4)C(C)=C1C3(C)C)[C@]1(OC(C)=O)CO[C@@H]1C[C@@H]2O` [paclitaxel] was tested. Which “caspase activation reported by the biosensor” value did it give?
A: stimulated

— patent US6875578B2, “System for cell-based screening” (priority 1997, dated 2005)
